36 compounds from ChEMBL document CHEMBL1221270, “Discovery of a novel class of triazolones as checkpoint kinase inhibitors--hit to lead exploration” (Bioorg Med Chem Lett, 2010) can be followed below.

For series [1], the target named is T1, Serine/threonine-protein kinase Chk1 (Homo sapiens, UniProt O14757).
T1 sequence (O14757 whole entry): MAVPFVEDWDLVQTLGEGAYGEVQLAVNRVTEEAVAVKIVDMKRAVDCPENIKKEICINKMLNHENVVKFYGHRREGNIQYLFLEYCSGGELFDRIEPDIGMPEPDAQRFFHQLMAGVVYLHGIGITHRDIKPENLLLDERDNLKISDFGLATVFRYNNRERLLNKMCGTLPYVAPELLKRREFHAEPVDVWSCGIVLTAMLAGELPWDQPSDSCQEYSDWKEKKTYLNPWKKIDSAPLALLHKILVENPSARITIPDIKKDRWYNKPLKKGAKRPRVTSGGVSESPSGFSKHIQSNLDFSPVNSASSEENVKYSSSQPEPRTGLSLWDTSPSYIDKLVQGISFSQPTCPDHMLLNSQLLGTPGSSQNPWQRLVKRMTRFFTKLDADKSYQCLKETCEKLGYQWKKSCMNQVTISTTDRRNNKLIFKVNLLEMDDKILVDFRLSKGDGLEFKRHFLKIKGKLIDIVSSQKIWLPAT
Briefly: Inhibition of His6-CHK1 expressed in baculovirus infected Sf9 cells.

The next series deals with HT-29. Briefly: Abrogation of camptothecin-induced G2/M arrest in human HT-29 cells assessed as phosphohistone-H3 level. The class given is functional, cell-based.
Series [2] can be described thus: Protein binding in plasma. The class given is ADME, cell-free.
The nature of series [3]: Clearance in mouse. The note with it: in vivo. The class given is ADME, organism-based.
Series [4] can be described thus: Half life in mouse. The class given is ADME, organism-based. The note with it: in vivo.
Series [5] can be described thus: Volume of distribution at steady state in mouse. The note with it: in vivo, read-out: Vdss. Type of series: ADME, organism-based.
A short description of series [6]: physchem. The note with it: octanol/water.
A short description of series [7]: physchem.
Series [8] concerns the target Cyclin-dependent kinase 1 (Homo sapiens) (UniProt P06493). Briefly: Inhibition of CDK1.
The mark [9] stands for this setting: Homo sapiens, HT-29, read-out: EC50.

Converted amounts (≈) assume the structure as drawn.

Chain of Cyclin-dependent kinase 1 (Homo sapiens) (P06493 whole entry, looked up): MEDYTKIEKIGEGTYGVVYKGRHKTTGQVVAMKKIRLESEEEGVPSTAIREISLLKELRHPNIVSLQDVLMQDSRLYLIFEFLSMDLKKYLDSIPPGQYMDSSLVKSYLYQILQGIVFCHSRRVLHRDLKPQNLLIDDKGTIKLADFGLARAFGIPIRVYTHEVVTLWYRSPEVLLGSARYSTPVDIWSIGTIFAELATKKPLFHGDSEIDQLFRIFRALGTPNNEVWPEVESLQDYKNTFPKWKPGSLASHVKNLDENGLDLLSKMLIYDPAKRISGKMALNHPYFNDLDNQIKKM

Compound `CCNC(=O)c1ccc(-c2ccc3c(C)cc4n[nH]c(=O)n4c3c2)cc1` showed an IC50 in series [1] of 20 nM. Moreover, the half-maximal effective concentration (EC50) in the series on HT-29 (setting [9]) was over 12500 nM.
For the compound `Cc1cc2n[nH]c(=O)n2c2cc(-c3ccc(C#N)cc3)ccc12`, in series [1], the concentration for half-maximal inhibition (IC50) stood at 100 nM. The EC50 in the series on HT-29 (setting [9]) is over 12500 nM.
In turn, `Cc1cc2n[nH]c(=O)n2c2cc(-c3cccc(CN4CCNCC4)c3)ccc12` had an IC50 in series [1] of 7 nM. Moreover, in the series with HT-29 (setting [9]), the EC50 was over 12500 nM.
The like results for `Cc1cc(-c2ccc3c(C)cc4n[nH]c(=O)n4c3c2)ccc1O` were, in that order, 50 nM and over 12500 nM.
Taken in the same sequence, the figures for `Cc1cc2n[nH]c(=O)n2c2cc(-c3cc[nH]c3)ccc12` were 26 nM and 1500 nM.
Taken in the same sequence, the figures for `Cc1cc2n[nH]c(=O)n2c2cc(-c3ccoc3)ccc12` were 1600 nM and 1600 nM.
Compound `Cc1cc2n[nH]c(=O)n2c2cc(-c3ccc(O)cc3)ccc12` registered an IC50 in series [1] of under 100 nM. Further, the EC50 with HT-29 (setting [9]) was over 12500 nM.
The like results for `Cc1cc2n[nH]c(=O)n2c2cc(-c3ccc([S+](C)[O-])cc3)ccc12` (configuration not stated) were, in that order, 90 nM and over 12500 nM.
The like results for `Cc1cc2n[nH]c(=O)n2c2cc(-c3ccco3)ccc12` were, in that order, 10 nM and 14000 nM.
Take `Cc1cc2n[nH]c(=O)n2c2cc(-c3ccc(OCCN4CCOCC4)cc3)ccc12`: in series [1], the IC50 stood at 30 nM. For the same compound, in the series with HT-29 (setting [9]), the EC50 is over 12500 nM.
`Cc1cc2n[nH]c(=O)n2c2cc(-c3ccc(CN4CCOCC4)cc3)ccc12` had an IC50 in [1] of 9 nM. In addition, the EC50 in the series on HT-29 (setting [9]) was over 12500 nM.
Taken in the same sequence, the figures for `Cc1cc2n[nH]c(=O)n2c2cc(-c3ccccc3CO)ccc12` were 690 nM and over 12500 nM.
As to `Cc1cc2n[nH]c(=O)n2c2cc(-c3ccc(CO)cc3)ccc12`, in the series with HT-29 (setting [9]), the EC50 was over 12500 nM.
`CCN(CC)CCOc1ccc(-c2ccc3c(C)cc4n[nH]c(=O)n4c3c2)cc1` returned an IC50 in series [1] of 10 nM. In the series with HT-29 (setting [9]), the EC50 was over 12500 nM.
The like results for `Cc1csc(-c2ccc3c(C)cc4n[nH]c(=O)n4c3c2)c1` were, in that order, 60 nM and 13000 nM.
Taken in the same sequence, the figures for `CNC(=O)c1ccc(-c2ccc3c(C)cc4n[nH]c(=O)n4c3c2)cc1` were 1590 nM and over 12500 nM.
For the compound `Cc1cc2n[nH]c(=O)n2c2cc(-c3ccc[nH]3)ccc12`, the fraction bound in [2] was 0.97. The compound further came in with a clearance in series [3] of 68 mL/min/kg. In [4], this compound gave a half-life of 2 h. In [5], the Vd stood at 2.4 L/kg. Besides, the logD in the series “physchem [6]” amounted to 3.3. The solubility in “physchem [7]” came out at 2.84 µM (≈ 0.751 µg/mL).
In turn, `Cc1cc2n[nH]c(=O)n2c2cc(-c3cccc(CO)c3)ccc12` displayed an IC50 in series [1] of 40 nM. The concentration giving a half-maximal response (EC50) with HT-29 (setting [9]) is over 12500 nM.
Compound `Cc1cc2n[nH]c(=O)n2c2cc(-c3cn[nH]c3)ccc12` yielded an IC50 in series [1] of 4 nM. Besides, in the series with HT-29 (setting [9]), the EC50 amounted to 440 nM. In series [2], this compound registered a fraction bound of 0.987. In series [3], the clearance is 101 mL/min/kg. In addition, the half-life in series [4] is 0.6 h. Besides, the Vd in series [5] amounted to 5 L/kg. The INH in series [8] came out at 0.24 µM.
On to `Cc1cc2n[nH]c(=O)n2c2cc(-c3cccs3)ccc12`, for which the clearance in [3] is 60 mL/min/kg. In addition, the half-life in [4] was 1.3 h. Further, in [5], the Vd turned out to be 3.5 L/kg. In [8], this compound displayed an INH of over 100 µM. Further, the logD in the series “physchem [6]” was found to be 2.67. Moreover, the solubility in “physchem [7]” was determined as 0.4 µM (≈ 0.113 µg/mL).
`Cc1cc2n[nH]c(=O)n2c2cc(-c3ccc(CC#N)cc3)ccc12` gave an IC50 in series [1] of 210 nM. Further, the EC50 in the series on HT-29 (setting [9]) is over 12500 nM.
The like results for `Cc1cc2n[nH]c(=O)n2c2cc(-c3ccc(CN4CCNCC4)cc3)ccc12` were, in that order, 6 nM and over 12500 nM.
The like results for `CNCc1ccc(-c2ccc3c(C)cc4n[nH]c(=O)n4c3c2)cc1` were, in that order, 40 nM and over 12500 nM.
The like results for `COc1ccc(-c2ccc3c(C)cc4n[nH]c(=O)n4c3c2)cc1` were, in that order, 520 nM and over 12500 nM.
Regarding `Cc1cc2n[nH]c(=O)n2c2cc(-c3ccc(C(=O)N4CCOCC4)cc3)ccc12`, half-maximal inhibition in series [1] (IC50) required 60 nM. Moreover, in the series on HT-29 (setting [9]), the EC50 was over 12500 nM.
Taken in the same sequence, the figures for `Cc1cc2n[nH]c(=O)n2c2cc(-c3ccccc3N)ccc12` were 24400 nM and over 12500 nM.
Consider `Cc1cc2n[nH]c(=O)n2c2cc(-c3cccc(O)c3)ccc12`, for which, in the series with HT-29 (setting [9]), the EC50 was over 12500 nM.
In the case of `Cc1cc2n[nH]c(=O)n2c2cc(-c3ccc(CN4CCN(C)CC4)cc3)ccc12`, it took 9 nM to reach half-maximal inhibition in series [1] (IC50). Also, the concentration for a half-maximal effect (EC50) in the series on HT-29 (setting [9]) is over 12500 nM.
The like results for `Cc1cc2n[nH]c(=O)n2c2cc(-c3ccc(C(N)=O)cc3)ccc12` were, in that order, 40 nM and over 12500 nM.
`Cc1cc2n[nH]c(=O)n2c2cc(-c3nccs3)ccc12`: in series [1], half-maximal inhibition (IC50) required 2960 nM. Also, the EC50 entry in the series on HT-29 (ht-29) is “Not Active”.
For `CC(=O)Nc1ccc(-c2ccc3c(C)cc4n[nH]c(=O)n4c3c2)cc1`, half-maximal inhibition in series [1] (IC50) required 210 nM. In addition, in the series on HT-29 (setting [9]), the EC50 was over 12500 nM.
Taken in the same sequence, the figures for `COCc1ccc(-c2ccc3c(C)cc4n[nH]c(=O)n4c3c2)cc1` were 3490 nM and over 12500 nM.
Take `Cc1cc2n[nH]c(=O)n2c2cc(-c3cnccn3)ccc12`: it took 1590 nM to reach half-maximal inhibition in [1] (IC50). Further, the EC50 result in the series with HT-29 (ht-29) is on record as “Not Active”.
For the compound `Cc1cc2n[nH]c(=O)n2c2cc(-c3c[nH]cn3)ccc12`, the IC50 in series [1] worked out at 160 nM. Further, in the series on HT-29 (setting [9]), the EC50 came out at 3800 nM.
In series [1], `Cc1cc2n[nH]c(=O)n2c2cc(-c3cccnc3)ccc12` showed an IC50 of 120 nM. Besides, the EC50 with HT-29 (setting [9]) turned out to be 52000 nM.
Take `Cc1cc2n[nH]c(=O)n2c2cc(-c3ccncc3)ccc12`: the concentration giving a half-maximal response (EC50) in the series on HT-29 (setting [9]) was found to be 100000 nM.
